# Measurements as given in the OPERA property sets (Mansouri et al. 2018).
# Settings: not given
Structure (SMILES),boiling point [°C],melting point [°C],log10 Koa,log10 vapour pressure (mmHg),log10 Koc (L/kg),log10 Henry constant (atm·m³/mol),ready biodegradability,log10 biodegradation half-life (days)
Cn1nnc2ccccc21,270,64.5,,,,,,
CCS(=O)(=O)CC,248,73.5,,,,,,
C[C@H](NC(=O)c1ccccc1)C(=O)O (racemic),,166,,,,,,
O=C1CCC(=O)N1Cl,216,150,,,,,,
O=C(O)C(Br)CBr (stereo not drawn),,66.5,,,,,,
Clc1c(Cl)c(Cl)c2ccccc2c1Cl,,198,8.3,-5.54,,,,
COc1cc(OC)cc(O[C@H]2O[C@H](CO)[C@@H](O)[C@H](O)[C@H]2O)c1,,170,,,,,,
Fc1c(F)c(F)c(CBr)c(F)c1F,174,,,,,,,
O=[n+]1[n-]c(-n2ccnc2)nc2ccc(Cl)cc21,,182,,-8.65,,,,
Nc1cc([N+](=O)[O-])cc([N+](=O)[O-])c1,,163,,,2.55,,,
CCCN(CCOc1c(Cl)cc(Cl)cc1Cl)C(=O)n1ccnc1,,48,,-5.95,2.7,,,
ClCC(Cl)CCl,157,-14.7,,0.567,,-3.46,not readily biodegradable,
O=C1CCCCCCCCC1=O,,40.5,,,,,,
CC(C)(C)CC(=O)OCC(=O)[C@@]1(O)CC[C@H]2[C@@H]3CCC4=CC(=O)CC[C@]4(C)[C@H]3[C@@H](O)C[C@@]21C,,168,,,,,,
O=C(O)CC(=O)O,,,,,,,readily biodegradable,
Cc1cc(C)c(C)c(C)n1,203,,,,,,,
N#CCC(N)=C(C#N)C#N,,172,,,,,,
CSc1ccc(N)cc1,272,,,,,,,
CNC1(c2ccccc2Cl)CCCCC1=O (stereo not drawn),,92.5,,,,,,
CC[C@@]12CCCN3CC[C@]4(c5cccc(OC)c5N(C(C)=O)[C@@H]4CC1)[C@H]32,,208,,,,,,
CCCCCCCCCCCCCCN,291,83.1,,-3.01,,,,
CCC1CCc2ccccc21 (stereo not drawn),212,,,,,,,
CCOc1ccccc1OCC,219,44,,,,,,
CCCCCN,104,-55,,1.48,,-4.61,readily biodegradable,
CCCOc1cc(N)ccc1C(=O)OCCN(CC)CC.Cl,,149,,,,,,

Structure (SMILES),boiling point [°C],melting point [°C],log10 Koa,log10 vapour pressure (mmHg),log10 Koc (L/kg),log10 Henry constant (atm·m³/mol),ready biodegradability,log10 biodegradation half-life (days)
CC(C)(C#N)C(C)(C)C#N,,170,,,,,,
CCOP(=O)(N=C1SCCS1)OCC,,41,,,,,,
COC(=O)CC(C)=O,172,,,-0.0496,,,readily biodegradable,
FC(F)(F)C(F)(F)C(F)(F)C(F)(F)C(F)(F)C(F)(F)Br,98,,,,,,,
N#CC#N,,-27.9,,3.63,,,,
Fc1ccccc1C(F)(F)F,114,,,1.58,,,,
CCOCCBr,128,,,,,,,
CP(=O)(O)CCC(N)C(=O)[O-].[NH4+] (stereo not drawn),,215,,,,,,
c1ccc2c(c1)Cc1ccccc1-2,295,115,6.79,-3.22,3.7,-4.02,not readily biodegradable,1.64
O=C(O)[C@H]1CC[C@H](C(=O)O)CC1,,312,,,,,,
CC1CC=CC1,65.7,-161,,,,,,
N#Cc1cc(F)c(F)c(F)c1F,164,,,,,,,
CCn1cc(C(=O)O)c(=O)c2cc(F)c(N3CCNCC3)nc21,,222,,,,,,
COc1ccc(-c2cc(=O)c3c(O)cc(O)cc3o2)cc1,,263,,,,,,
CCOP(=O)(OCC)SCCSCC,,,,,1.85,,,
CNC(=O)Oc1ccccc1OC(CCl)OC (stereo not drawn),,80,,,,,,
C[C@]12CC[C@H](O[C@@H]3O[C@H](CO[C@@H]4O[C@H](CO)[C@@H](O)[C@H](O)[C@H]4O)[C@@H](O)[C@H](O)[C@H]3O)C[C@@H]1CC[C@@H]1[C@@H]2CC[C@]2(C)[C@@H](C3=CC(=O)OC3)CC[C@]12O,,269,,,,,,
CCCCCCCCCCCCCCCCCCI,383,34,,-5.72,,,,
CC[C@@](C)(O)C(=O)O,,74,,,,,,
COC(=O)c1ccc(C)cc1O,243,27.5,,,,,,
Cc1cc(C)c(O)c(C(C)(C)C)c1,249,22.3,,-1.35,,,not readily biodegradable,
Cc1ccc(O)c2ccccc12,,85.8,,,,,,
CC1(C)CCC(C)(C)C1,118,-88.4,,,,,,
O=C(O)c1cc(I)c(O)c(I)c1,,237,,,,,,
CC(C)CC(C)(C)O,133,,,,,,,

Structure (SMILES),boiling point [°C],melting point [°C],log10 Koa,log10 vapour pressure (mmHg),log10 Koc (L/kg),log10 Henry constant (atm·m³/mol),ready biodegradability,log10 biodegradation half-life (days)
CCCCCCCOC(=O)CCCC,245,-46.4,,,,,,
CCN(CC)CC#CCOC(=O)C(O)(c1ccccc1)C1CCCCC1.Cl (stereo not drawn),,130,,,,,,
CC(O)C(=O)O (stereo not drawn),,40.9,,-1.09,,,readily biodegradable,
NNc1ccccn1,,46.6,,,,,,
FC(F)(I)C(F)(F)C(F)(F)C(F)(F)I,150,-9,,,,,,
CCCC(C)Cl (stereo not drawn),99,-80,,1.69,,,,
Nc1cccc(O)c1,,123,,,,,not readily biodegradable,
Clc1cccc(-c2c(Cl)cc(Cl)c(Cl)c2Cl)c1Cl,,,,,,-4.41,,
CC1(C)[C@@H]2CC[C@@]1(C)[C@H](O)C2,,209,,,,,,
CC(=O)OCCCl,145,,,,,,,
CC(=O)CC(C)C(C)=O (stereo not drawn),196,,,,,,,
CCOC(=O)CC(=O)CC,191,,,,,,,
CC(C)(C)C(O)/C(=C\c1ccc(Cl)cc1Cl)n1cncn1 (stereo not drawn),,147,,-4.43,,,,
OCC(Cc1ccccc1)c1ccccc1 (stereo not drawn),310,51,,,,,,
O=C1C(=O)c2cccc3cccc1c23,,261,,,,,,
COc1cccc(CC(C)=O)c1,259,,,,,,,
O=C(O)c1cccc([N+](=O)[O-])c1,,141,,,,,not readily biodegradable,
CC(=O)Nc1ccc2c(c1)Cc1cc([N+](=O)[O-])ccc1-2,,262,,,,,,
CCCC(=O)C(=O)OCC,182,,,,,,,
C#CC(C)(C)NC(=O)c1ccccc1,,,,,1.54,,,
CCOC(=O)C(C(C)=O)C(C)C (stereo not drawn),201,,,,,,,
CC(C)CC(=O)OCc1ccccc1,245,,,,,,,
O=C=NS(=O)(=O)Cl,107,-44,,,,,,
COP(N)(=O)SC (stereo not drawn),,46,,-4.45,0.7,,,
ClCC1CO1 (stereo not drawn),117,-41.6,,1.22,1,,not readily biodegradable,

Structure (SMILES),boiling point [°C],melting point [°C],log10 Koa,log10 vapour pressure (mmHg),log10 Koc (L/kg),log10 Henry constant (atm·m³/mol),ready biodegradability,log10 biodegradation half-life (days)
CC(=O)Cl,50.7,-113,,2.46,,,,
O=C(OCC1(COC(=O)c2cccnc2)CCCC(COC(=O)c2cccnc2)(COC(=O)c2cccnc2)C1O)c1cccnc1,,178,,,,,,
CO[Si](OC)(OC)OC,121,,,,,,,
Cc1nc2ccc([N+](=O)[O-])cc2[nH]1,,224,,,,,,
Oc1cccc(C(F)(F)F)c1,178,-1.8,,,,,,
O=[N+]([O-])c1ccc(I)cc1,288,175,,,,,,
C=CC1CCC1C=C (stereo not drawn),112,,,,,,,
COC(=O)c1ccccc1OC(C)=O,,51.5,,,,,,
CCCCC(C)(O)CCC (stereo not drawn),180,,,,,,,
COP(=S)(OC)SCC(=O)N(c1ccc(Cl)cc1)C(C)C,,51,,,,,,
O[C@H](CS)[C@H](O)CS,,62.8,,,,,,
Cc1ncc(COP(=O)(O)O)c(C=O)c1O,,255,,,,,,
CC(C)(O)Cc1ccccc1,215,24,,,,,,
CCCCCCCC(=O)NN,,88,,,,,,
CCNc1ccccc1,203,-63.5,,-0.69,,-5.01,not readily biodegradable,
N#Cc1ccc2ccccc2c1,306,66,,,,,,
Clc1cccc(-c2c(Cl)ccc(Cl)c2Cl)c1Cl,,,8.8,,,,,
CC1(C)CC[C@]2(C)CC=C3[C@]4(C)CC[C@H]5C(C)(C)[C@@H](O)CC[C@]5(C)[C@H]4CC[C@@]3(C)[C@@H]2C1,,284,,,,,,
CCCC/C=C/CCCC,171,-73,,,,,,
Oc1ccc(Cl)c(O)c1,,107,,,,,not readily biodegradable,
CC(N)=O,222,81,,-1.4,0.7,,readily biodegradable,
Clc1cc(Cl)c(Cl)nc1Cl,250,90.5,,,,,,
O=C1/C(=C2\Nc3c(Br)cc(Br)cc3C2=O)Nc2c(Br)cc(Br)cc21,,,,-11.1,,,,

# Same assay, conditions: fish
Structure (SMILES),log10 BCF,log10 biotransformation half-life (days)
Clc1c(Cl)c(Cl)c2ccccc2c1Cl,3.7,1.2
ClCC(Cl)CCl,1.11,-0.53
c1ccc2c(c1)Cc1ccccc1-2,2.72,0.7
Brc1cc(Br)c(Br)c(Oc2c(Br)c(Br)c(Br)c(Br)c2Br)c1,5.68,
CCOP(=O)(OCC)Oc1cc(C)nc(C(C)C)n1,-0.35,
Nc1cccc(O)c1,1.34,
O=C(O)c1cccc([N+](=O)[O-])c1,0.85,
CCNc1ccccc1,1.11,-0.65
